Laboratory results: paper PMC11881343, “Safety of ilunocitinib tablets (Zenrelia™) after once daily oral administration in dogs” (BMC Veterinary Research, 2025)

Assays:
[1] = tested on: dogs; set-up: method as in internal report; settings: dogs maintained on concrete floors with corn cob bedding; ref internal report; cited from earlier work
[2] = tested on: healthy Beagle dogs; test: 6-month safety study: organ weights, gross and microscopic examinations; settings: 5X group
Procedure: (§1) At study termination (study day 183), the dogs were humanely euthanized by an intravenous injection of pentobarbital sodium/phenytoin solution under sedation with 6.6–13.2 mg/kg Telazol® (tiletamine/zolazepam) subcutaneous injection. Gross and microscopic examinations were carried out on all animals by a board-certified veterinary pathologist.

[3] = tested on: healthy Beagle dogs; settings: dog, in vivo
Procedure: as §1

[4] = tested on: leukocyte subsets (T, Th, Tc, B lymphocytes, monocytes); test: Peripheral blood immunophenotyping by flow cytometry; assay type: in vivo, dog; settings: either sex at any dose level
Source text: Whole blood samples were also collected from the jugular vein for the evaluation of the leukocyte subsets and phenotypes on study days − 16 and − 8, and on study days 29, 57, 85, 113, 141, 169 and 183. The immunophenotype profiling by flow cytometry included total T lymphocytes (CD45 + CD5 + or CD5 + T cells), Helper T lymphocytes (CD45 + CD5 + CD4 + or CD4 + Th cells), Cytotoxic T lymphocytes (CD45 + CD5 + CD8 + or CD8 + Tc cells), B lymphocytes (CD45 + CD5- CD21 + or CD21 + B cells) and monocytes (CD45 + CD14+).
For immunophenotyping/peripheral blood leukocytes, a generalized linear mixed model for repeated measures analysis of variance (mixed model) was conducted. For each endpoint, the model tested for the effects of treatment, time, sex and all two and three-way interactions. The last available pre-treatment value was included in the model as a covariate. The evaluation proceeded as described for RMANCOVA.

[5] = tablets, dogs; no reference given; cited from earlier work
[6] = tested on: healthy Beagle dogs; test: 6-month target animal safety study: clinical observations, physical, neurological and ophthalmoscopic examinations; settings: for Skin discoloration, number of animals affected / Skin lesion w/discharge, number of animals affected / Skin lesion, number of animals affected / Skin scab paw, number of animals affected / Skin thickening (paws), number of animals affected / Swollen paws, number of animals affected: 8 dogs per group
Procedure: This was a randomized, controlled, blinded, 6-month study with a parallel design. Using a block randomization procedure stratified by sex, 20 males and 20 females were randomly allocated on study day − 3 to one of the following five groups (4 males and 4 females per group): Group 1: Untreated control (sham-dosed with 5 mL of tap water); Group 2: Ilunocitinib film-coated tablets at a target dose level of 0.8 mg/kg (1X); Group 3: Ilunocitinib film-coated tablets at a target dose level of 1.6 mg/kg (2X); Group 4: Ilunocitinib film-coated tablets at a target dose level of 2.4 mg/kg (3X) and Group 5: Ilunocitinib film-coated tablets at a target dose level of 4.0 mg/kg (5X). The experimental unit was the individual dog.
The dose levels were selected based on the maximum therapeutic dose (i.e. 0.8 mg/kg, 1X) and the requirement to test multiples of the maximum therapeutic dose, i.e. 2X, 3X and 5X the therapeutic dose. Doses for each individual animal were based on the most recent body weight. Commercial tablets of ilunocitinib, available in 4.8, 6.4, 8.5, and 15 mg strength, were dispensed. These tablets were combined appropriately to meet the individual’s precise dosage requirement, ensuring there was no underdosing. […] Approximately 5 mL of water was given after each administration and the mouth checked to ensure the tablets had been swallowed. Control animals were sham treated with 5 mL of tap water.
Animals were observed twice daily, at least 6 h apart, over the entire course of the study for morbidity, mortality and injury. Clinical examinations of each dog were performed before treatment administration and at approximately 2 and 5 h post treatment. Observations included, but were not limited to, evaluation of skin, fur, eyes, ears, nose, oral cavity, thorax, abdomen, external genitalia, limbs and feet, respiratory and circulatory signs, autonomic effects such as salivation, and nervous system effects including tremors, convulsions, reactivity to handling, and unusual behavior.
Body weights for all animals were recorded during the acclimation phase (study days − 12 and − 1) and then once weekly during the study. Food consumption (dry and wet food) was measured and recorded daily. […] Assessments including overall general condition and behavior, ocular inspection, integument, musculoskeletal, gastrointestinal, body temperature, cardiovascular and respiratory systems including auscultation-based assessment, reproductive, lymphatic, urinary and nervous systems.

[7] = tested on: dogs; settings: field conditions; cited from earlier work
[8] = 1X (0.8 mg/kg oral once daily, 6 months)
[9] = 2X (1.6 mg/kg oral once daily, 6 months)
[10] = 3X (2.4 mg/kg oral once daily, 6 months)
[11] = 5X (4.0 mg/kg oral once daily, 6 months)

N#CCC1(n2cc(-c3ncnc4[nH]ccc34)cn2)CN(S(=O)(=O)C2CC2)C1 [ilunocitinib]
interdigital cysts (IDC) [1]: not observed
Prostate weight, prostate weight as a percent of body weight and ratio of prostate weight to brain weight vs controls [2]: significantly decreased
Microscopic findings across all groups [3]: minimal and largely consistent with background pathology
combined adrenal gland weight vs controls [3]: increased combined adrenal gland weight
cutaneous lesions (microscopic), animals affected [3]: 5 out of 8
enlarged thyroid/parathyroid glands (incidental macroscopic finding) [3]: single case of enlarged thyroid/parathyroid glands
focal lesions on the lungs (incidental macroscopic finding) [3]: two focal lesions on the lungs
effects on leukocyte analysis (immunophenotyping) parameters [4]: no test article-related effects
increase in oral bioavailability when given with food or after feeding [5]: ~20%
serious adverse effects during the course of the study ([6]; 0.8 to 4.0 mg/kg once daily for 6 months): no serious adverse effects
Skin discoloration, number of animals affected [6, 8]: 1
Skin lesion w/discharge, number of animals affected [6, 8]: 1
Skin lesion, number of animals affected [6, 8]: 4
Skin scab paw, number of animals affected [6, 8]: 0
Skin thickening (paws), number of animals affected [6, 8]: 0
Swollen paws, number of animals affected [6, 8]: 1
interdigital furunculosis, or cysts, with or without discharge on one or more paws ([6]; 1X to 5X): dose-dependent presence
Skin discoloration, number of animals affected [6, 9]: 1
Skin lesion w/discharge, number of animals affected [6, 9]: 3
Skin lesion, number of animals affected [6, 9]: 5
Skin scab paw, number of animals affected [6, 9]: 0
Skin thickening (paws), number of animals affected [6, 9]: 1
Swollen paws, number of animals affected [6, 9]: 5
Skin discoloration, number of animals affected [6, 10]: 2
Skin lesion w/discharge, number of animals affected [6, 10]: 3
Skin lesion, number of animals affected [6, 10]: 6
Skin scab paw, number of animals affected [6, 10]: 1
Skin thickening (paws), number of animals affected [6, 10]: 1
Swollen paws, number of animals affected [6, 10]: 6
Skin discoloration, number of animals affected [6, 11]: 0
Skin lesion w/discharge, number of animals affected [6, 11]: 4
Skin lesion, number of animals affected [6, 11]: 8
Skin scab paw, number of animals affected [6, 11]: 1
Skin thickening (paws), number of animals affected [6, 11]: 0
Swollen paws, number of animals affected [6, 11]: 3
ophthalmological or neurological findings associated with treatment ([6]; all dose levels): No ophthalmological or neurological findings
serious adverse effects or mortality ([6]; including at 5X overdose for 6 months): no serious adverse effects or mortality
tolerability ([6]; therapeutic dose (0.8 mg/kg)): well-tolerated
Weight gain in dogs under field conditions [7]: in very few cases
